Test results reported in ChEMBL document CHEMBL3872270, “Intelligent substance delivery into cells using cell-penetrating peptides” (Bioorg Med Chem Lett, 2017).
pEC50: −log10 of the molar value.

Assay: Cytotoxicity against human paclitaxel-resistant OVCA429 cells assessed as cell viability preincubated for 20 mins followed by wash and incubation in drug-free media for 72 hrs by MTT assay
Assay type: functional, cell-based

CC(=O)O[C@H]1C(=O)[C@@]2(C)[C@H]([C@H](OC(=O)c3ccccc3)[C@]3(O)C[C@H](OC(=O)[C@H](OC(=O)CCCSSCCCCCCOP(=O)(OCCCCCCNC(=N)N)OCCOP(=O)(OCCCCCCNC(=N)N)OCCOP(=O)(OCCCCCCNC(=N)N)OCCOP(=O)(OCCCCCCNC(=N)N)OCCOP(=O)(OCCCCCCNC(=N)N)OCCOP(=O)(OCCCCCCNC(=N)N)OCCOP(=O)(OCCCCCCNC(=N)N)OCCOP(=O)(OCCO)OCCCCCCNC(=N)N)[C@@H](NC(=O)c4ccccc4)c4ccccc4)C(C)=C1C3(C)C)[C@]1(OC(C)=O)CO[C@@H]1C[C@@H]2O (stereo partly specified)
pEC50: 5.85
